Data taken from ChEMBL document CHEMBL1137123, “Himbacine analogs as muscarinic receptor antagonists--effects of tether and heterocyclic variations” (Bioorg Med Chem Lett, 2004).

Experiments:
[1] = target: T1, Muscarinic acetylcholine receptor M1 (Homo sapiens, UniProt P11229); test: In vitro inhibitory activity against cloned human M1 muscarinic receptor
T1 sequence (P11229 whole entry): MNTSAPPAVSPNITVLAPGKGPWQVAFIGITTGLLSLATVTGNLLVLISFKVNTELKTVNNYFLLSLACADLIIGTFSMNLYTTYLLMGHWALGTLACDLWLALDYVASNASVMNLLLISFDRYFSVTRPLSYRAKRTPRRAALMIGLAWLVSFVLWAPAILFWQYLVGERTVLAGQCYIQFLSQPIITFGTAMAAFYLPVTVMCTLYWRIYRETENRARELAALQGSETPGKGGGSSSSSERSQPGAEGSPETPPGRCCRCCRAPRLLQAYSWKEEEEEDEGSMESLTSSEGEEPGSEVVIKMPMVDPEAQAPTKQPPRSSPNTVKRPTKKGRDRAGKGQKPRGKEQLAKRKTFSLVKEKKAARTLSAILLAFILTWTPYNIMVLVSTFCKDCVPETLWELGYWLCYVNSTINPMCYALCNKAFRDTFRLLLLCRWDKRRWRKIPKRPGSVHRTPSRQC

[2] = target: T2, Muscarinic acetylcholine receptor M2 (Homo sapiens, UniProt P08172); test: In vitro inhibitory activity against cloned human M2 muscarinic receptor
T2 sequence (P08172 whole entry): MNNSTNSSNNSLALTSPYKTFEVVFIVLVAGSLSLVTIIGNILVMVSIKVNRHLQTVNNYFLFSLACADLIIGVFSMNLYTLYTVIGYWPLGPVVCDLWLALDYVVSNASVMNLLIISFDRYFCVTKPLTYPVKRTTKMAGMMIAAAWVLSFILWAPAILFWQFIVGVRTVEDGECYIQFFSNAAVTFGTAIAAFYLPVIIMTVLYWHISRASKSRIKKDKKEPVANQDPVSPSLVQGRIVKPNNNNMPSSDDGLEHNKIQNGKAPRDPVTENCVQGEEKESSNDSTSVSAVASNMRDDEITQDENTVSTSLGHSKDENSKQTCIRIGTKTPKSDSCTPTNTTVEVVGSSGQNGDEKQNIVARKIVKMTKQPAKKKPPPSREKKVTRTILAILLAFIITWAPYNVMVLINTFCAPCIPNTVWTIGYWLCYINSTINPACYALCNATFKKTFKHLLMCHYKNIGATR

| Compound | Ki [1] [µM] | Ki [2] [µM] |
| --- | --- | --- |
| C[C@@H]1OC(=O)[C@H]2C=C3CCCC[C@@H]3/C(=C/CC3CCC(C)(C)N3C)[C@@H]12 (some centres not stated) | 0.177 | 0.068 |
| C[C@@H]1OC(=O)[C@H]2C[C@H]3CCCC[C@@H]3[C@@H](/C=C/[C@@H]3CCC[C@H](C)N3)[C@@H]12 | > 1.4 | > 1.4 |
| C[C@@H]1OC(=O)[C@H]2C=C3CCCC[C@@H]3[C@@H]([C@@H]3CC4CCC(C)(C)[N+]4(C)O3)[C@@H]12 (some centres not stated) | 0.79 | 0.18 |
| CCN1C(C/C=C2\[C@H]3[C@H](C)OC(=O)[C@H]3C=C3CCCC[C@@H]32)CCC1(C)C (some centres not stated) | 0.64 | > 1.4 |
| CCN1C(CCC2[C@H]3[C@H](C)OC(=O)[C@H]3C[C@H]3CCCC[C@H]23)CCC1(C)C (some centres not stated) | 0.811 | 0.449 |
| C[C@@H]1OC(=O)[C@H]2C[C@H]3CCCC[C@@H]3[C@@H](CC[C@H]3CCC[C@H](C)N3C)[C@@H]12 | 0.032 | 0.0043 |
| C[C@@H]1OC(=O)[C@H]2C[C@H]3CCCC[C@@H]3[C@@H](/C=C/[C@H]3CCC[C@H](C)N3C)[C@@H]12 [HIMBACINE] | 0.048 | 0.0045 |
| C[C@@H]1OC(=O)[C@H]2C[C@H]3CCCC[C@@H]3[C@@H](/C(O)=C/[C@H]3CCC[C@H](C)N3C)[C@@H]12 | 1.57 | 0.203 |
| C[C@@H]1OC(=O)[C@H]2C=C3CCCC[C@@H]3[C@@H]([C@@H]3CC4CCC(C)(C)N4O3)[C@@H]12 (some centres not stated) | > 1.4 | > 1.4 |
| C[C@@H]1OC(=O)[C@H]2C[C@H]3CCCC[C@@H]3C(CCC3CCC(C)(C)N3C)[C@@H]12 (some centres not stated) | 0.122 | 0.0122 |
| C[C@@H]1OC(=O)[C@H]2C[C@H]3CCCC[C@@H]3/C(=C/C[C@H]3CCC[C@H](C)N3C)[C@@H]12 | 0.0659 | 0.0133 |
| C[C@@H]1OC(=O)[C@H]2C[C@H]3CCCC[C@@H]3[C@@H](CC[C@H]3CCC[C@H](C)N3)[C@@H]12 | 0.068 | 0.016 |
| C[C@@H]1OC(=O)[C@H]2C[C@H]3CCCC[C@@H]3[C@@H]([C@@H](O)C[C@H]3CCC(C)(C)N3C)[C@@H]12 | > 1.4 | > 1.4 |
| C[C@@H]1OC(=O)[C@H]2C=C3CCCC[C@@H]3/C(=C/CC3CCC(C)(C)[N+]3(C)C)[C@@H]12 (some centres not stated) | 0.446 | 0.571 |
| C[C@@H]1OC(=O)[C@H]2C[C@H]3CCCC[C@@H]3/C(=C/CC3CCC(C)(C)N3C)[C@@H]12 (some centres not stated) | 0.418 | 0.043 |
| C[C@@H]1OC(=O)[C@H]2C[C@H]3CCCC[C@@H]3[C@@H](/C=C/[C@@H]3CCC[C@H](C)N3C)[C@@H]12 | > 1.4 | > 1.4 |
